# Source: patent US9549558B2, “Herbicidal azines” (BASF SE, priority 2012, dated 2017)
# Assays:
# Type in all cases: in vivo
# STEME (Stellaria media) [1] = assay: greenhouse post-emergence herbicidal test
# In short: (§1)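 Post-emergence greenhouse test on plants grown to 3–15 cm in loamy sand (~3.0% humus), sprayed with active ingredient suspended or emulsified in water. Plants held at 10-25 °C or 20-35 °C by species for 2 to 4 weeks, then damage scored visually 0–100 (100 = complete destruction of aerial parts, 0 = no damage).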
# [2] = test system: ABUTH (Abutilon theophrasti); assay: greenhouse post-emergence herbicidal test
# In short: as §1
# [3] = test system: ECHCG (Echinocloa crus-galli); assay: greenhouse post-emergence herbicidal test
# In short: as §1
# [4] = test system: AMARE (Amaranthus retroflexus); assay: greenhouse post-emergence herbicidal test
# In short: as §1
# [5] = test system: CAPBP (Capsella bursa-pastoris); assay: greenhouse pre-emergence herbicidal test
# In short: (§2)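 Compounds suspended or emulsified in water were sprayed right after sowing into loamy sand (~3.0% humus). Pots were kept at 10-25 °C or 20-35 °C depending on species for 2 to 4 weeks. Damage was scored 0-100 (100 = no emergence or complete destruction).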
# LAMPU (Lamium purpureum) = assay: greenhouse pre-emergence herbicidal test
# In short: as §2
# STEME (Stellaria media) [6] = assay: greenhouse pre-emergence herbicidal test
# In short: as §2
# [7] = test system: CHEAL (Chenopodium album); assay: greenhouse post-emergence herbicidal test; conditions: 0.125 kg/ha
# In short: as §1
# [8] = test system: GERDI (Geranium dissectum); assay: greenhouse post-emergence herbicidal test
# In short: as §1
# [9] = test system: POLCO (Polygonum convolvulus); assay: greenhouse post-emergence herbicidal test; conditions: 0.062 kg/ha
# In short: as §1
# [10] = test system: APESV (Apera spica-venti); assay: greenhouse pre-emergence herbicidal test
# In short: as §2
# POAAN (Poa annua) = assay: greenhouse pre-emergence herbicidal test
# In short: as §2
# [11] = test system: MATIN (Matricaria maritima); assay: greenhouse pre-emergence herbicidal test; conditions: 2000 g/ha
# In short: as §2
# [12] = test system: ECHCG (Echinocloa crus-galli); assay: greenhouse pre-emergence herbicidal test
# In short: as §2
# [13] = test system: POLCO (Polygonum convolvulus); assay: greenhouse pre-emergence herbicidal test
# In short: as §2
# SETVI (Setaria viridis) = assay: greenhouse pre-emergence herbicidal test
# In short: as §2
# VIOAR (Viola arvensis) = assay: greenhouse pre-emergence herbicidal test
# In short: as §2
# [14] = test system: AMARE (Amaranthus retroflexus); assay: greenhouse pre-emergence herbicidal test; conditions: 1000 g/ha
# Description: The seeds of the test plants were sown separately for each species. For the pre-emergence treatment, the active ingredients, which had been suspended or emulsified in water, were applied directly after sowing by means of finely distributing nozzles. The containers were irrigated gently to promote germination and growth and subsequently covered with transparent plastic hoods until the plants had rooted. This cover caused uniform germination of the test plants, unless this had been impaired by the active ingredients. Depending on the species, the plants were kept at 10-25° C. or 20-35° C., respectively. The test period extended over 2 to 4 weeks. During this time, the plants were tended, and their response to the individual treatments was evaluated. […] A moderate herbicidal activity is given at values of at least 60, a good herbicidal activity is given at values of at least 70, and a very good herbicidal activity is given at values of at least 85. The plants used in the greenhouse experiments were of the following species: [table]
structure (smiles),measurement,setting,value
CC(C)(F)c1nc(N)nc(Nc2c(F)cccc2Cl)n1 [Example 35],herbicidal activity,STEME (Stellaria media) [1]; 0.062 kg/ha,very good (a very good herbicidal activity is given at values of at least 85)
same,herbicidal activity,[2]; 0.062 kg/ha,very good (a very good herbicidal activity is given at values of at least 85)
CC(C)(F)c1nc(N)nc(Nc2c(F)c(F)cc(-c3ccccc3)c2F)n1 [Example 192],herbicidal activity,[3]; 1000 g/ha,very good (a very good herbicidal activity is given at values of at least 85)
same,herbicidal activity,[4]; 1000 g/ha,very good (a very good herbicidal activity is given at values of at least 85)
same,herbicidal activity,[2]; 1000 g/ha,very good (a very good herbicidal activity is given at values of at least 85)
CCc1nc(N)nc(Nc2c(F)c(F)c(F)c(F)c2F)n1 [Example 4],herbicidal activity,"[5]; 0.125 kg/ha, CAPBP",very good (a very good herbicidal activity is given at values of at least 85)
same,herbicidal activity,LAMPU (Lamium purpureum); 0.125 kg/ha,very good (a very good herbicidal activity is given at values of at least 85)
CC(C)(C)c1nc(N)nc(Nc2c(F)c(F)c(Br)c(F)c2F)n1 [Example 160],herbicidal activity,"[5]; 125 g/ha, CAPBP",very good (a very good herbicidal activity is given at values of at least 85)
same,herbicidal activity,STEME (Stellaria media) [6]; 125 g/ha,very good (a very good herbicidal activity is given at values of at least 85)
same,herbicidal activity,LAMPU (Lamium purpureum); 125 g/ha,very good (a very good herbicidal activity is given at values of at least 85)
CC(C)(F)c1nc(N)nc(Nc2c(F)cc(Cl)cc2F)n1 [Example 97],herbicidal activity,"[5]; 250 g/ha, CAPBP",good (a good herbicidal activity is given at values of at least 70)
same,herbicidal activity,LAMPU (Lamium purpureum); 250 g/ha,good (a good herbicidal activity is given at values of at least 70)
CCC(F)(CC)c1nc(N)nc(Nc2c(F)c(F)c(F)c(F)c2F)n1 [Example 49],herbicidal activity,[7],very good (a very good herbicidal activity is given at values of at least 85)
same,herbicidal activity,[8]; 0.125 kg/ha,very good (a very good herbicidal activity is given at values of at least 85)
CC(C)(F)c1nc(N)nc(Nc2c(F)ccc(Cl)c2F)n1 [Example 32],herbicidal activity,[9],very good (a very good herbicidal activity is given at values of at least 85)
same,herbicidal activity,[8]; 0.062 kg/ha,very good (a very good herbicidal activity is given at values of at least 85)
"CC(C)(Cl)c1nc(N)nc(Nc2c(F)c(F)c(F)c(F)c2F)n1 [Example 1, 6-(1-chloro-1-methyl-ethyl)-N4-(2,3,4,5,6-pentafluorophenyl)-1,3,5-triazine-2,4-diamine]",herbicidal activity,STEME (Stellaria media) [1]; 0.125 kg/ha,very good (a very good herbicidal activity is given at values of at least 85)
same,herbicidal activity,[4]; 0.125 kg/ha,very good (a very good herbicidal activity is given at values of at least 85)
CC(C)(Cl)c1nc(N)nc(Nc2c(F)cccc2F)n1 [Example 78],herbicidal activity,[10]; 125 g/ha,good (a good herbicidal activity is given at values of at least 70)
CC(=O)N(c1nc(N)nc(C(C)(C)F)n1)c1c(F)c(F)c(F)c(F)c1F [Example 291],herbicidal activity,POAAN (Poa annua); 2000 g/ha,very good (a very good herbicidal activity is given at values of at least 85)
same,herbicidal activity,[11],very good (a very good herbicidal activity is given at values of at least 85)
CC(C)(F)c1nc(N)nc(Nc2c(F)ccc(F)c2F)n1 [Example 27],herbicidal activity,[3]; 0.062 kg/ha,very good (a very good herbicidal activity is given at values of at least 85)
same,herbicidal activity,[4]; 0.062 kg/ha,very good (a very good herbicidal activity is given at values of at least 85)
"CC(C)(F)c1nc(N)nc(Nc2c(F)c(F)cc(F)c2F)n1 [Example 2, 6-(1-Fluoro-1-methyl-ethyl)-N4-(2,3,5,6-tetrafluorophenyl)-1,3,5-triazine-2,4-diamine]",herbicidal activity,[3]; 0.125 kg/ha,very good (a very good herbicidal activity is given at values of at least 85)
same,herbicidal activity,[7],very good (a very good herbicidal activity is given at values of at least 85)
CCC(C)(F)c1nc(N)nc(Nc2c(F)ccc(F)c2F)n1 (stereo not drawn) [Example 114],herbicidal activity,[12]; 32 g/ha,very good (a very good herbicidal activity is given at values of at least 85)
same,herbicidal activity,[13]; 32 g/ha,very good (a very good herbicidal activity is given at values of at least 85)
same,herbicidal activity,SETVI (Setaria viridis); 32 g/ha,very good (a very good herbicidal activity is given at values of at least 85)
Nc1nc(Nc2c(F)c(F)c(F)c(F)c2F)nc(C2(F)C(F)(F)C(F)(F)C(F)(F)C(F)(F)C2(F)F)n1 [Example 175],herbicidal activity,[10]; 494 g/ha,good (a good herbicidal activity is given at values of at least 70)
CC(C)(F)c1nc(N)nc(Nc2c(F)c(F)c(Cl)c(F)c2F)n1 [Example 128],herbicidal activity,POAAN (Poa annua); 125 g/ha,very good (a very good herbicidal activity is given at values of at least 85)
same,herbicidal activity,VIOAR (Viola arvensis); 125 g/ha,good (a good herbicidal activity is given at values of at least 70)
Nc1nc(Nc2ccc(Br)cc2F)nc(C(F)F)n1 [Example 157],herbicidal activity,[3]; 500 g/ha,very good (a very good herbicidal activity is given at values of at least 85)
same,herbicidal activity,[2]; 500 g/ha,very good (a very good herbicidal activity is given at values of at least 85)
CCC(C)(Cl)c1nc(N)nc(Nc2c(F)c(F)c(F)c(F)c2F)n1 (stereo not drawn) [Example 200],herbicidal activity,[12]; 1000 g/ha,very good (a very good herbicidal activity is given at values of at least 85)
same,herbicidal activity,"[5]; 1000 g/ha, CACBP",very good (a very good herbicidal activity is given at values of at least 85)
same,herbicidal activity,[13]; 1000 g/ha,very good (a very good herbicidal activity is given at values of at least 85)
COc1cc(F)c(Nc2nc(N)nc(C(C)(C)F)n2)c(F)c1 [Example 116],herbicidal activity,[10]; 1000 g/ha,very good (a very good herbicidal activity is given at values of at least 85)
same,herbicidal activity,[14],good (a good herbicidal activity is given at values of at least 70)
CCC(C)(F)c1nc(N)nc(Nc2c(F)c(F)c(F)c(F)c2F)n1 (stereo not drawn) [Example 48],herbicidal activity,STEME (Stellaria media) [1]; 0.125 kg/ha,very good (a very good herbicidal activity is given at values of at least 85)
same,herbicidal activity,[4]; 0.125 kg/ha,very good (a very good herbicidal activity is given at values of at least 85)
COCN(c1nc(N)nc(C(C)(C)F)n1)c1c(F)c(F)c(F)c(F)c1F [Example 305],herbicidal activity,VIOAR (Viola arvensis); 500 g/ha,very good (a very good herbicidal activity is given at values of at least 85)
same,herbicidal activity,STEME (Stellaria media) [6]; 500 g/ha,very good (a very good herbicidal activity is given at values of at least 85)
same,herbicidal activity,[13]; 500 g/ha,very good (a very good herbicidal activity is given at values of at least 85)
CC(C)c1nc(N)nc(Nc2c(F)c(F)c(F)c(F)c2F)n1 [Example 7],herbicidal activity,[2]; 0.125 kg/ha,very good (a very good herbicidal activity is given at values of at least 85)
same,herbicidal activity,[8]; 0.125 kg/ha,very good (a very good herbicidal activity is given at values of at least 85)
CC(C)(C)c1nc(N)nc(Nc2c(F)c(F)c(F)c(F)c2F)n1 [Example 52],herbicidal activity,[2]; 0.062 kg/ha,very good (a very good herbicidal activity is given at values of at least 85)
same,herbicidal activity,[8]; 0.062 kg/ha,very good (a very good herbicidal activity is given at values of at least 85)
CC(C)(F)c1nc(N)nc(Nc2c(F)cccc2F)n1 [Example 24],herbicidal activity,[13]; 0.125 kg/ha,very good (a very good herbicidal activity is given at values of at least 85)
same,herbicidal activity,SETVI (Setaria viridis); 0.125 kg/ha,very good (a very good herbicidal activity is given at values of at least 85)
CC(F)c1nc(N)nc(Nc2cc(F)c(F)c(F)c2)n1 (stereo not drawn) [Example 16],herbicidal activity,STEME (Stellaria media) [1]; 0.125 kg/ha,moderate (A moderate herbicidal activity is given at values of at least 60)
same,herbicidal activity,[2]; 0.125 kg/ha,good (a good herbicidal activity is given at values of at least 70)
CC(C)(F)c1nc(N)nc(Nc2ccc([N+](=O)[O-])cc2F)n1 [Example 39],herbicidal activity,[10]; 0.031 kg/ha,moderate (A moderate herbicidal activity is given at values of at least 60)
CC1(c2nc(N)nc(Nc3c(F)c(F)c(F)c(F)c3F)n2)CCCCC1 [Example 88],herbicidal activity,"[5]; 125 g/ha, CAPBP",very good (a very good herbicidal activity is given at values of at least 85)
same,herbicidal activity,STEME (Stellaria media) [6]; 125 g/ha,very good (a very good herbicidal activity is given at values of at least 85)
same,herbicidal activity,LAMPU (Lamium purpureum); 125 g/ha,very good (a very good herbicidal activity is given at values of at least 85)
CC(F)(F)c1nc(N)nc(Nc2c(F)c(F)c(F)c(F)c2F)n1 [Example 9],herbicidal activity,[2]; 0.062 kg/ha,very good (a very good herbicidal activity is given at values of at least 85)
same,herbicidal activity,[8]; 0.062 kg/ha,very good (a very good herbicidal activity is given at values of at least 85)
